Key:
CYP2D6 = CYP2D6 (Homo sapiens, UniProt P10635); experiment: CYP2D6 inhibition (fluorescent substrate); type: in vitro ADME; details: CYP2D6, AMMC substrate; read-out: Cyp IC50 2D6
Description: CYP (Cytochrome P450) enzymes are the major drug metabolizing enzymes present in the liver. The inhibition of CYP enzyme activity (IC50) for each of CYP1A2, CYP2C19, CYP2C9, CYP2D6, CYP3A4(BFC) and CYP3A4(BQ) is determined for compounds, where inhibition of metabolism of a known substrate leads to a decrease in the fluorescence of the metabolized product. The fluorescence of the product is monitored as a function of compound concentration.
Compounds are dissolved in dimethyl sulfoxide to a concentration of 100 mM. These are diluted 1 μL into 82 μL of acetonitrile. […] These are then serially diluted 1:1 (160 μL to 160 μL co-factor mix) for a total of 10 points. A 10 μL aliquot of this final mixture is dispensed into 384 well assay plates and incubated for 10 minutes at 37° C. […] Assay plates are incubated at 37° C. […] The signal versus compound concentration is used to determine the IC50. The enzymes and substrates for this assay are obtained from BD Biosciences.

[1] = test system: A375 melanoma cells (B-Raf V600E); experiment: A375 cell growth inhibition (ATPlite); type: cell-based; details: Homo sapiens, A-375, 72 h; A375, 3 days incubation
How it was run: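 Cells plated overnight, then exposed 3 days at 37° C to 8-point 1:3 compound dilutions topping at 10 μM final. Viability read as ATPlite luminescence, proportional to cell number; IC50 from luminescence versus concentration.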

[2] = Relative solubility by turbidity in aqueous buffers of varying pH; type: physicochemical; details: for turbidity threshold (L, M, H) 7.4: HEPES pH 7.4; for turbidity threshold (L, M, H) 4.5: SIF pH 4.5; for turbidity threshold (L, M, H) 6.8: SIF pH 6.8; for turbidity threshold (L, M, H) 1.4: buffer pH 1.4 (SGF)
Description: As an indication of relative solubility, the turbidity of compounds in aqueous solutions is assessed. To assess possible compound properties in different physiological compartments, such as stomach, intestine, and blood, a series of aqueous buffers with varying pH is used. Thus each compound is diluted into four different physiologically relevant buffers and solution turbidity is measured by spectrophotometry.
Compounds are dissolved at a concentration of 25 mM in dimethyl sulfoxide, then serially diluted 1:1 into a 96 well plate, diluting 10 times in pure dimethyl sulfoxide, with the final well of each row a dimethyl sulfoxide blank. In an assay plate, 99 μL of appropriate buffer is added to each well, and 1 μL of each sample dilution is added to the buffer, achieving a range of final total concentrations in aqueous solutions having different pH. The buffers used are Simulated Gastric Fluid (SGF-pH 1.5) 0.5M NaCl, pH 1.5; Simulated Intestinal fluid (SIF-pH 4.5 and pH 6.8) 0.05M NaH2PO4, pH 4.5 and 6.8; and Hepes Buffer (HEPES-pH 7.4) 10 mM HEPES, 150 mM NaCl, pH 7.4. Control compounds pyrene, estriol and propranolol HCl are also assessed. Plates are spun and then mixed for 1 minute, and the absorbance is read using a Tecan Safire II to read wavelengths in the visible range (490, 535, and 650 nm) at four locations per well, reflecting the degree of turbidity present. The average optical density for each wavelength in each well is graphed vs. compound concentration, and the concentration at which the curve crosses a threshold O.D. of 0.01 for each wavelength is reported as the endpoint turbidity assay result. The average of the three wavelengths is used to compare turbidity of compounds. Compounds are considered to have low solubility if the threshold concentration is <31.3 04, moderate solubility if the threshold concentration is 31.3 μM to 250 μM, and high solubility if the threshold concentration is >250 μM.

Chain of CYP2D6 (P10635 whole entry): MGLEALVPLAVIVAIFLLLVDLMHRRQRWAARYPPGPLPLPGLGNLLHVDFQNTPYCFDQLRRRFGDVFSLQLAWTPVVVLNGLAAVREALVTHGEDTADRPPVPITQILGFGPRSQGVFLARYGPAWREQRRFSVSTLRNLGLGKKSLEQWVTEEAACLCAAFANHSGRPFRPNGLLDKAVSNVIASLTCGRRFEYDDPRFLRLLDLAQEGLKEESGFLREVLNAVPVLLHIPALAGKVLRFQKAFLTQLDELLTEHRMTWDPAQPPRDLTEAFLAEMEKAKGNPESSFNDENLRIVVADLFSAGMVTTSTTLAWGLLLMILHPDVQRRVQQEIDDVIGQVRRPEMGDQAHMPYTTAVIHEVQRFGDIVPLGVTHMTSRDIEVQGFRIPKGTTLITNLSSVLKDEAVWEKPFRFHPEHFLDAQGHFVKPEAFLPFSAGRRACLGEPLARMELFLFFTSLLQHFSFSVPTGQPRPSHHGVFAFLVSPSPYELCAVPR

| IC50 (CYP2D6) [µM] | IC50 [1] [µM] | Structure (SMILES) | turbidity threshold (L, M, H) 7.4 [2] | turbidity threshold (L, M, H) 4.5 [2] | turbidity threshold (L, M, H) 6.8 [2] | turbidity threshold (L, M, H) 1.4 [2] |
| --- | --- | --- | --- | --- | --- | --- |
| > 10 | < 1 | N#Cc1cnc2[nH]cc(C(=O)c3c(F)ccc(NS(=O)(=O)c4ccccc4)c3F)c2c1 [P-2046, N-[3-(5-Cyano-1H-pyrrolo[2,3-b]pyridine-3-carbonyl)-2,4-difluoro-phenyl]-benzenesulfonamide] | M (moderate solubility if the threshold concentration is 31.3 μM to 250 μM) | L (low solubility if the threshold concentration is <31.3 04) | M (moderate solubility if the threshold concentration is 31.3 μM to 250 μM) | L (low solubility if the threshold concentration is <31.3 04) |
| > 10 | < 5 | O=C(c1c(F)ccc(NS(=O)(=O)c2c(F)cccc2F)c1F)c1c[nH]c2nccc(Cl)c12 [P-2033, N-[3-(4-Chloro-1H-pyrrolo[2,3-b]pyridine-3-carbonyl)-2,4-difluoro-phenyl]-2,6-difluoro-benzenesulfonamide] |  |  |  |  |
| > 10 | < 5 | N#Cc1ccnc2[nH]cc(C(=O)c3c(F)ccc(NS(=O)(=O)c4cc(F)ccc4F)c3F)c12 [P-2036, N-[3-(4-Cyano-1H-pyrrolo[2,3-b]pyridine-3-carbonyl)-2,4-difluoro-phenyl]-2,5-difluoro-benzenesulfonamide] |  |  |  |  |
| > 10 | < 5 | N#Cc1ccnc2[nH]cc(C(=O)c3c(F)ccc(NS(=O)(=O)c4c(F)cccc4F)c3F)c12 [P-2037, N-[3-(4-Cyano-1H-pyrrolo[2,3-b]pyridine-3-carbonyl)-2,4-difluoro-phenyl]-2,6-difluoro-benzenesulfonamide] |  |  |  |  |
| > 10 | < 5 | N#Cc1cnc2[nH]cc(C(=O)c3cccc(NS(=O)(=O)c4c(F)cccc4F)c3F)c2c1 [P-2054, N-[3-(5-Cyano-1H-pyrrolo[2,3-b]pyridine-3-carbonyl)-2-fluoro-phenyl]-2,6-difluoro-benzenesulfonamide] |  |  |  |  |
| > 10 | < 5 | N#Cc1cnc2[nH]cc(C(=O)c3c(F)ccc(NS(=O)(=O)c4cccnc4)c3F)c2c1 [P-2072, Pyridine-3-sulfonic acid [3-(5-cyano-1H-pyrrolo[2,3-b]pyridine-3-carbonyl)-2,4-difluoro-phenyl]-amide] |  |  |  |  |
| > 10 | < 5 | N#Cc1cnc2[nH]cc(C(=O)c3c(F)ccc(NS(=O)(=O)c4c(F)cccc4F)c3F)c2c1 [P-2029, N-[3-(5-Cyano-1H-pyrrolo[2,3-b]pyridine-3-carbonyl)-2,4-difluoro-phenyl]-2,6-difluoro-benzenesulfonamide] |  |  |  |  |
| > 10 | < 5 | N#Cc1ccnc2[nH]cc(C(=O)c3c(F)ccc(NS(=O)(=O)c4cccc(F)c4)c3F)c12 [P-2039, N-[3-(4-Cyano-1H-pyrrolo[2,3-b]pyridine-3-carbonyl)-2,4-difluoro-phenyl]-3-fluoro-benzenesulfonamide] |  |  |  |  |
| > 10 | < 5 | COc1ccnc2[nH]cc(C(=O)c3c(F)ccc(NS(=O)(=O)c4c(F)cccc4F)c3F)c12 [P-2031, N-[2,4-Difluoro-3-(4-methoxy-1H-pyrrolo[2,3-b]pyridine-3-carbonyl)-phenyl]-2,6-difluoro-benzenesulfonamide] |  |  |  |  |

Second part, the compound before the results:

| Structure (SMILES) | IC50 (CYP2D6) [µM] | IC50 [1] [µM] | turbidity threshold (L, M, H) 7.4 [2] | turbidity threshold (L, M, H) 4.5 [2] | turbidity threshold (L, M, H) 6.8 [2] | turbidity threshold (L, M, H) 1.4 [2] |
| --- | --- | --- | --- | --- | --- | --- |
| CCCS(=O)(=O)Nc1ccc(F)c(C(=O)c2c[nH]c3ncc(-c4ccc(OCCN5CCOCC5)nc4)cc23)c1F [P-2232, Propane-1-sulfonic acid (2,4-difluoro-3-{5-[6-(2-morpholin-4-yl-ethoxy)-pyridin-3-yl]-1H-pyrrolo[2,3-b]pyridine-3-carbonyl}-phenyl)-amide] | > 10 | < 0.1 | L (low solubility if the threshold concentration is <31.3 04) | M (moderate solubility if the threshold concentration is 31.3 μM to 250 μM) | L (low solubility if the threshold concentration is <31.3 04) | M (moderate solubility if the threshold concentration is 31.3 μM to 250 μM) |
| N#Cc1ccnc2[nH]cc(C(=O)c3c(F)ccc(NS(=O)(=O)c4cccnc4)c3F)c12 [P-2077, Pyridine-3-sulfonic acid [3-(4-cyano-1H-pyrrolo[2,3-b]pyridine-3-carbonyl)-2,4-difluoro-phenyl]-amide] | > 10 | < 10 |  |  |  |  |
| CCCS(=O)(=O)Nc1ccc(F)c(C(=O)c2c[nH]c3ncc(-c4ccc(Cl)nc4)cc23)c1F [P-2154, Propane-1-sulfonic acid {3-[5-(6-chloro-pyridin-3-yl)-1H-pyrrolo[2,3-b]pyridine-3-carbonyl]-2,4-difluoro-phenyl}-amide] | > 10 | < 1 |  |  |  |  |
| CCCS(=O)(=O)Nc1ccc(F)c(C(=O)c2c[nH]c3ncc(-c4ccc(SC)nc4)cc23)c1F [P-2187, Propane-1-sulfonic acid {2,4-difluoro-3-[5-(6-methylsulfanyl-pyridin-3-yl)-1H-pyrrolo[2,3-b]pyridine-3-carbonyl]-phenyl}-amide] | > 10 | < 1 |  |  |  |  |
| CCCS(=O)(=O)Nc1ccc(F)c(C(=O)c2c[nH]c3ncc(-c4ccc(N)nc4)cc23)c1F [P-2214, Propane-1-sulfonic acid {3-[5-(6-amino-pyridin-3-yl)-1H-pyrrolo[2,3-b]pyridine-3-carbonyl]-2,4-difluoro-phenyl}-amide] | > 10 | < 1 |  |  |  |  |
| CCCS(=O)(=O)Nc1ccc(F)c(C(=O)c2c[nH]c3ncc(-c4ccc(S(=O)(=O)NC)cc4)cc23)c1F [P-2167, 4-{3-[2,6-Difluoro-3-(propane-1-sulfonylamino)-benzoyl]-1H-pyrrolo[2,3-b]pyridin-5-yl}-N-methyl-benzenesulfonamide] | > 10 | < 1 |  |  |  |  |
| CCCc1ccc(-c2cnc3[nH]cc(C(=O)c4c(F)ccc(NS(=O)(=O)CCC)c4F)c3c2)cn1 [P-2224, Propane-1-sulfonic acid {2,4-difluoro-3-[5-(6-propyl-pyridin-3-yl)-1H-pyrrolo[2,3-b]pyridine-3-carbonyl]-phenyl}-amide] | > 10 | < 1 |  |  |  |  |
| CCCS(=O)(=O)Nc1ccc(F)c(C(=O)c2c[nH]c3ncc(-c4cnc(OC)nc4OC)cc23)c1F [P-2199, Propane-1-sulfonic acid {3-[5-(2,4-dimethoxy-pyrimidin-5-yl)-1H-pyrrolo[2,3-b]pyridine-3-carbonyl]-2,4-difluoro-phenyl}-amide] | > 10 | < 5 |  |  |  |  |
| CCCS(=O)(=O)Nc1ccc(F)c(C(=O)c2c[nH]c3ncc(-c4cccc(S(C)(=O)=O)c4)cc23)c1F [P-2228, Propane-1-sulfonic acid {2,4-difluoro-3-[5-(3-methanesulfonyl-phenyl)-1H-pyrrolo[2,3-b]pyridine-3-carbonyl]-phenyl}-amide] | > 10 | < 1 |  |  |  |  |
| CCCS(=O)(=O)Nc1ccc(F)c(C(=O)c2c[nH]c3ncc(-c4ccc(S(=O)(=O)CC)cc4)cc23)c1F [P-2218, Propane-1-sulfonic acid {3-[5-(4-ethanesulfonyl-phenyl)-1H-pyrrolo[2,3-b]pyridine-3-carbonyl]-2,4-difluoro-phenyl}-amide] | > 10 | < 0.1 |  |  |  |  |
| COc1ccnc2[nH]cc(C(=O)c3c(F)ccc(NS(=O)(=O)c4cccnc4)c3F)c12 [P-2073, Pyridine-3-sulfonic acid [2,4-difluoro-3-(4-methoxy-1H-pyrrolo[2,3-b]pyridine-3-carbonyl)-phenyl]-amide] | > 10 | < 10 |  |  |  |  |
